Measurements: article PMC2358886, “Evolution of pharmacologic specificity in the pregnane X receptor” (BMC Evolutionary Biology, 2008)
Read-outs that look alike come from different tables or passages of the source.

Experiments:
human PXR [1] = biological target: T1, human PXR (Homo sapiens, UniProt O75469); settings: for hPXR Efficacy: human
T1 sequence (O75469 1-434): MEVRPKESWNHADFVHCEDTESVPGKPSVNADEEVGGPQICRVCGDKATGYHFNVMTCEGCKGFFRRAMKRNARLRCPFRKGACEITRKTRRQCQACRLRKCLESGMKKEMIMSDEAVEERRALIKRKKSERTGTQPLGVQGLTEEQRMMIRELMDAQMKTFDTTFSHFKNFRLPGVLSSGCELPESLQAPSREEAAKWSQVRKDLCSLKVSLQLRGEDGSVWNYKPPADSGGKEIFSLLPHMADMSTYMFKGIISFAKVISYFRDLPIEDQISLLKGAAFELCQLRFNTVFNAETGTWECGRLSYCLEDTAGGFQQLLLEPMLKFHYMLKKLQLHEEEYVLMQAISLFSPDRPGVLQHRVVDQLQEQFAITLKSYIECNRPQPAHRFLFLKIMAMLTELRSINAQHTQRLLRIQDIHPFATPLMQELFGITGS

zebrafish PXR = biological target: T2, zebrafish PXR (Danio rerio, UniProt A5WYG8)
T2 sequence (A5WYG8 144-430): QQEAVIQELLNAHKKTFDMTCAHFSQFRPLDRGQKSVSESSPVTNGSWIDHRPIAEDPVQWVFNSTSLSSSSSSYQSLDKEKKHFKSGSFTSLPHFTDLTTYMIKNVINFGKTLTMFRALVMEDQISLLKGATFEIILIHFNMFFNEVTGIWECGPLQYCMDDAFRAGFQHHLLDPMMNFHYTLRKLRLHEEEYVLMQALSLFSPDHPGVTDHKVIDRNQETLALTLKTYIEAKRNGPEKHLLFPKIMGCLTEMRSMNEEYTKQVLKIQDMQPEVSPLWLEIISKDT

human PXR [2] = biological target: T1, human PXR; experiment: PXR activation luciferase reporter assay, human PXR in HepG2-NTCP cells; settings: for hPXR Efficacy: relative to 10 μM rifampicin, assigned an efficacy of 1.0
[3] = -log(EC50), EC50 in molar units, activation of zebrafish PXR
[4] = -log(EC50), EC50 in molar units, activation of human PXR
[5] = Human PXR EC50 (concentration class, Figure 2A), class read from box colour against the key of Figure 2
[6] = hPXR Activity, -log(EC50), EC50 in molar units, activation of human PXR

C[C@]12CCC(=O)C[C@@H]1CC[C@@H]1[C@@H]2CC[C@]2(C)C(=O)CC[C@@H]12 [AN2, 5α-Androstan-3,17-dione]
hPXR Efficacy (human PXR [1]): 0.87
Toxicity (HepG2 cells): None

C[C@]12CC[C@H]3[C@@H](CCC4=CC(=O)CC[C@@]43C)[C@@H]1CC[C@@H]2O [AN8, 4-Androsten-17β-ol-3-one]
hPXR Efficacy (human PXR [1]): 0.22
Toxicity (HepG2 cells): None

C[C@]12CC[C@H]3[C@@H](CCC4=CC(=O)CC[C@@]43C)[C@@H]1CC[C@H]2O [AN15, 4-Androsten-17α-ol-3-one]
hPXR Efficacy (human PXR [1]): 0.9
Toxicity (HepG2 cells): None

C[C@]12CC[C@@H](O[C@@H]3O[C@H](C(=O)O)[C@@H](O)[C@H](O)[C@H]3O)C[C@H]1CC[C@@H]1[C@@H]2CC[C@]2(C)C(=O)CC[C@@H]12 [AN18, 5β-Androstan-3α-glucosiduronate-17-one]
zfPXR Activity (zebrafish PXR; [3]): None
Toxicity (HepG2 cells): None
hPXR Activity (human PXR [2]; [4]): None

C[C@H](CCC(=O)O)[C@H]1CC[C@H]2[C@@H]3CC[C@@H]4C[C@H](OS(=O)(=O)O)CC[C@]4(C)[C@H]3CC[C@]12C [BI41, 5β-Cholanic acid-3α-sulfate]
zfPXR Activity (zebrafish PXR; [3]): 4.61
Toxicity (HepG2 cells): None
hPXR Activity (human PXR [2]; [4]): 3.93

CC(=O)O[C@@H]1CC[C@@]2(C)[C@H](CC[C@@H]3[C@@H]2CC[C@]2(C)[C@@H]([C@H](C)CCC(=O)O)CC[C@@H]32)C1 [BI49, 5β-Cholanic acid-3α-acetate]
zfPXR Activity (zebrafish PXR; [3]): 5.89
Toxicity (HepG2 cells): None
hPXR Activity (human PXR [2]; [4]): 5.92
hPXR Efficacy (human PXR [2]): 0.54

COC(=O)CC[C@@H](C)[C@H]1CC[C@H]2[C@@H]3CC[C@@H]4C[C@H](OC(C)=O)CC[C@]4(C)[C@H]3CC[C@]12C [BI50, 5β-Cholanic acid-3α-acetate methyl ester]
zfPXR Activity (zebrafish PXR; [3]): None
Toxicity (HepG2 cells): None
hPXR Activity (human PXR [2]; [4]): 5.96

CC(C)CCC[C@@H](C)[C@H]1CC[C@H]2[C@@H]3CC=C4C[C@@H](O)CC[C@]4(C)[C@H]3CC[C@]12C [Cholesterol]
Human PXR EC50 (concentration class, Figure 2A) (human PXR [1]): Inactive

C[C@]12CC[C@@H]3c4ccc(O)cc4CC[C@H]3[C@@H]1CC[C@@H]2O [ES1, 1,3,5(10)-Estratrien-3,17β-diol]
zfPXR Activity (zebrafish PXR; [3]): None
Toxicity (HepG2 cells; human, 24 hr): 200 µM
EC50 (human PXR [2]; [5]): 11 to 50 µM
EC50 (human PXR [2]; [6]): 15.8 µM

C[C@]12CC[C@@H]3c4ccc(O)cc4CC[C@H]3[C@@H]1CCC2=O [ES2, 1,3,5(10)-Estratrien-3-ol-17-one]
Toxicity (HepG2 cells; human, 24 hr): 200 µM

C[C@]12CC[C@@H]3c4ccc(OC5O[C@H](C(=O)O)[C@@H](O)[C@H](O)[C@H]5O)cc4CC[C@H]3[C@@H]1CC[C@@H]2O (stereo partly drawn) [ES9, 1,3,5(10)-Estratrien-17β-ol-3-glucosiduronate]
zfPXR Activity (zebrafish PXR; [3]): None
Toxicity (HepG2 cells): None
hPXR Activity (human PXR [2]; [4]): None

CC(=O)Nc1ccc(O)cc1 [MI1, Acetaminophen]
Toxicity (HepG2 cells): None

Cn1c(=O)c2c(ncn2C)n(C)c1=O [MI6, Caffeine]
hPXR Activity (human PXR [1]): None

CC1=C(/C=C/C(C)=C/C=C/C(C)=C/C=C/C=C(C)/C=C/C=C(C)/C=C/C2=C(C)CCCC2(C)C)C(C)(C)CCC1 [MI9, β-Carotene]
zfPXR Activity (zebrafish PXR; [3]): None
Toxicity (HepG2 cells; human, 24 hr): 100 µM
EC50 (human PXR [2]; [6]): 3.47 µM

C[C@H]([C@H](O)CCC(C)(C)O)[C@H]1CC[C@@]2(O)C3=CC(=O)[C@@H]4C[C@@H](O)[C@@H](O)C[C@]4(C)[C@H]3CC[C@]12C [MI13, Ecdysone]
zfPXR Activity (zebrafish PXR; [3]): None
Toxicity (HepG2 cells): None
hPXR Activity (human PXR [2]; [4]): None

CCOC(=O)c1ccccc1N [MI14, Ethyl-2-aminobenzoate]
zfPXR Activity (zebrafish PXR; [3]): None
hPXR Activity (human PXR [2]; [4]): None

Nc1nc2ncc(CNc3ccc(C(=O)N[C@@H](CCC(=O)O)C(=O)O)cc3)nc2c(=O)[nH]1 [MI16, Folic acid]
zfPXR Activity (zebrafish PXR): None
Toxicity (HepG2 cells): None

C/C=C1\C(=O)C[C@H]2[C@@H]3CCC4=CC(=O)CC[C@]4(C)[C@H]3CC[C@]12C [MI17, Guggulsterone]
zfPXR Activity (zebrafish PXR): None
Toxicity (HepG2 cells): None

CC[C@H](C)C(=O)O[C@H]1CCC=C2C=C[C@H](C)[C@H](CC[C@@H]3C[C@@H](O)CC(=O)O3)[C@H]21 [MI20, Mevastatin]
zfPXR Activity (zebrafish PXR; [3]): None
Toxicity (HepG2 cells; human, 24 hr): 15 µM
EC50 (human PXR [2]; [6]): 5.89 µM

CC(=O)O[C@H]1C(=O)[C@@]2(C)[C@H]([C@H](OC(=O)c3ccccc3)[C@]3(O)C[C@H](OC(=O)[C@H](O)[C@@H](NC(=O)c4ccccc4)c4ccccc4)C(C)=C1C3(C)C)[C@]1(OC(C)=O)CO[C@@H]1C[C@@H]2O [MI24, Paclitaxel]
zfPXR Activity (zebrafish PXR): None
Toxicity (HepG2 cells; human, 24 hr): 100 µM
EC50 (human PXR [2]; [6]): 12 µM

COC(=O)[C@H]1[C@H]2C[C@@H]3c4[nH]c5cc(OC)ccc5c4CCN3C[C@H]2C[C@@H](OC(=O)c2cc(OC)c(OC)c(OC)c2)[C@@H]1OC [MI30, Reserpine]
Toxicity (HepG2 cells; human, 24 hr): 50 µM

CO[C@H]1/C=C/O[C@@]2(C)Oc3c(C)c(O)c4c(O)c(c(/C=N/N5CCN(C)CC5)c(O)c4c3C2=O)NC(=O)/C(C)=C\C=C\[C@H](C)[C@H](O)[C@@H](C)[C@@H](O)[C@@H](C)[C@H](OC(C)=O)[C@@H]1C [MI32, Rifampicin]
zfPXR Activity (zebrafish PXR; [3]): None
Toxicity (HepG2 cells; human, 24 hr): 200 µM

CCOP(=O)(OCC)C(=Cc1cc(C(C)(C)C)c(O)c(C(C)(C)C)c1)P(=O)(OCC)OCC [MI33, SR12813]
zfPXR Activity (zebrafish PXR; [3]): None
Toxicity (HepG2 cells): 10 µM

Cc1c(C)c2c(c(C)c1O)CC[C@@](C)(CCC[C@H](C)CCC[C@H](C)CCCC(C)C)O2 [MI37, α-Tocopherol]
zfPXR Activity (zebrafish PXR): None
Toxicity (HepG2 cells; human, 24 hr): 100 µM
EC50 (human PXR [2]; [6]): ~50.1 µM

C=C1/C(=C\C=C2/CCC[C@]3(C)[C@@H]([C@H](C)CCCC(C)(C)O)CC[C@@H]23)C[C@@H](O)C[C@@H]1O [MI41, 1α,25-Dihydroxyvitamin D3]
Toxicity (HepG2 cells; human, 24 hr): 50 µM

C=C1/C(=C\C=C2/CCC[C@]3(C)[C@@H]([C@H](C)CCCC(C)C)CC[C@@H]23)C[C@@H](O)C[C@@H]1O [MI43, 1α-Hydroxyvitamin D3]
zfPXR Activity (zebrafish PXR; [3]): None
Toxicity (HepG2 cells; human, 24 hr): 50 µM

CC1=C(C/C=C(\C)CCC[C@H](C)CCC[C@H](C)CCCC(C)C)C(=O)c2ccccc2C1=O [MI44, Vitamin K1]
zfPXR Activity (zebrafish PXR; [3]): None
Toxicity (HepG2 cells; human, 24 hr): 100 µM
EC50 (human PXR [2]; [6]): 10.2 µM

C[C@]12C[C@H](O)[C@H]3[C@@H](CCC4=CC(=O)CC[C@@]43C)[C@@H]1CC[C@@H]2C(=O)CO [PR3, 4-Pregnen-11β,21-diol-3,20-dione]
Zebrafish PXR EC50 (concentration class, Figure 2B) (zebrafish PXR): Inactive
zfPXR Activity (zebrafish PXR): None
Toxicity (HepG2 cells): None
EC50 (human PXR [2]; [5]): < 10 µM
EC50 (human PXR [2]; [6]): 10 µM

C[C@]12CCC(=O)C=C1CC[C@@H]1[C@@H]2CC[C@@]2(C)[C@H]1CC[C@]2(O)C(=O)CO [PR4, 4-Pregnen-17,21-diol-3,20-dione]
zfPXR Activity (zebrafish PXR; [3]): None
Toxicity (HepG2 cells): None
EC50 (human PXR [2]; [5]): 11 to 50 µM
EC50 (human PXR [2]; [6]): 22.9 µM

C[C@]12CCC(=O)C=C1CC[C@@H]1[C@@H]2[C@@H](O)C[C@]2(C=O)[C@@H](C(=O)CO)CC[C@@H]12 [PR5, 4-Pregnen-11β,21-diol-3,18,20-trione]
zfPXR Activity (zebrafish PXR; [3]): None
Toxicity (HepG2 cells): None
EC50 (human PXR [2]; [5]): 51 to 200 µM
EC50 (human PXR [2]; [6]): 55 µM

C[C@]12CCC(=O)C=C1CC[C@@H]1[C@@H]2C(=O)C[C@@]2(C)[C@H]1CC[C@]2(O)C(=O)CO [PR6, 4-Pregnen-17,21-diol-3,11,20-trione]
Zebrafish PXR EC50 (concentration class, Figure 2B) (zebrafish PXR): Inactive
zfPXR Activity (zebrafish PXR): None
Toxicity (HepG2 cells; human, 24 hr): 200 µM
EC50 (human PXR [2]; [5]): 51 to 200 µM
EC50 (human PXR [2]; [6]): 69.2 µM

CC(=O)[C@H]1CC[C@H]2[C@@H]3CCC4=CC(=O)CC[C@]4(C)[C@H]3CC[C@]12C [PR7, 4-Pregnen-3,20-dione]
zfPXR Activity (zebrafish PXR; [3]): None
Toxicity (HepG2 cells; human, 24 hr): 200 µM
EC50 (human PXR [2]; [5]): 11 to 50 µM
EC50 (human PXR [2]; [6]): 14.8 µM

CC(=O)[C@@]1(O)CC[C@H]2[C@@H]3CCC4=CC(=O)CC[C@]4(C)[C@H]3CC[C@@]21C [PR8, 4-Pregnen-17-ol-3,20-dione]
Toxicity (HepG2 cells; human): None

CC(=O)[C@H]1CC[C@H]2[C@@H]3CC=C4C[C@@H](O)CC[C@]4(C)[C@H]3CC[C@]12C [PR12, 5-Pregnen-3β-diol-20-one]
zfPXR Activity (zebrafish PXR; [3]): 6.32
zfPXR Efficacy (zebrafish PXR; relative to 20 μM 5α-androstan-3α-ol, assigned an efficacy of 1.0): 2.05
Toxicity (HepG2 cells): None
hPXR Activity (human PXR [2]; [4]): 5.64
hPXR Efficacy (human PXR [2]): 1.26

C[C@@H]1C[C@H]2[C@@H]3CCC4=CC(=O)C=C[C@]4(C)[C@@]3(F)[C@@H](O)C[C@]2(C)[C@@]1(O)C(=O)CO [PR29, 1,4-Pregnadien-9α-fluoro-16α-methyl-11β,17,21-triol-3,20-dione]
zfPXR Activity (zebrafish PXR): None
Toxicity (HepG2 cells): None
EC50 (human PXR [2]; hPXR Activity): 40.7 µM
